Reference: patent US20250231157A1, “METHOD FOR DETERMINING THE PARTITION OF NAPHTHENIC ACIDS FROM A PRODUCTION WATER MIMICKING SYSTEM AND MIMICKING SYSTEM” (PETRÓLEO BRASILEIRO S.A. – PETROBRAS, priority 2023, published 2025)
Blank lines part the entries; values can stand above or below the compound they belong to.

Assays:
[1] = Control experiments: availability of the species in alkaline aqueous medium without using the reactor; type: physicochemical; conditions: acid solubilized directly in aqueous phase, no reactor
Method: Previously, the back titration procedure was internalized and optimized (Example 1), ensuring that the reproducibility of the measurements was adequate (standard deviation values below 10%, for example) and that the recoveries were close to what was expected based on the purity of the reagents (i.e., close to or above 90%). […] Control experiments were performed (measuring the availability of the species in an aqueous medium, without using the reactor) by solubilizing the organic acid directly in the aqueous phase and titrating a 10.0 mL aliquot; the same way, experiments were performed in the reactor based on the standardization of heptol and salinity already discussed (3.5%).

[2] = Partition equilibrium in the presence of demulsifiers (Dissolvan 961, Dissolvan 974)
[3] = Partition equilibrium under the influence of salinity (NaCl), glass reactor, neutralization titration; type: physicochemical; conditions: Salinity 0 (%, m · m^−1) NaCl
[4] = Partition equilibrium in the presence of surfactants (TBA, CTA, TMA); type: physicochemical
Text: The presence of chemical compounds usually added in the chain of unit operations of oil extraction and production, such as demulsifiers and surfactants, can affect the partition equilibrium of species in this water/oil system. In order to understand the extent of this effect, as well as discern the relevance of the chemical structure on this effect, the following items were chosen: • Dissolvan 961 (Clariant), composed of oil hydrocarbons (CAS 918-811-1) and ethanol (CAS 64-17-5); • Dissolvan 974 (Clariant), composed of EO-PO block polymer poly adducts and Bisphenol-A-diglycidyl ether (CAS 68123-18-2) and ethanol (CAS 64-17-5); • Tetrabutylammonium chloride (CAS 1112-67-0), 97% purity; • Cetyltrimethylammonium chloride (CAS 112-02-7), 25% in water; and • Trimethylammonium chloride (CAS 593-81-7), 98% purity.
For this study, the experiments (in triplicate) used between 100.0 and 1000.0 mg·L^−1 of each compound, comparing the results with control tests (absence of the component), all with constant salinity at 3.5% (m·v^−1). Finally, neutralization titration with a standardized NaOH titrant solution was used to determine the effect on the partition equilibrium for four acidic species (the same as in the other examples, except for dicyclohexylacetic acid).
Considering the study with surfactants, the (individual) addition of three species to the control system was evaluated (tetrabutylammonium chloride (TBA), tetramethylammonium chloride (TMA) and cetyltrimethylammonium chloride (CTA)). For this purpose, the surfactants have distinct chemical structures, namely the size of the side chain, and their eventual effect on the partition equilibrium of the acidic species was evaluated.

[5] = Partition equilibrium under the influence of salinity (NaCl), glass reactor, neutralization titration; type: physicochemical
Method: The variation in salinity (and its effect on acidic species) is due to the large variation in salinity found between the portions of bottom-hole water, middle-well water and surface water. Thus, systems with salinity (i.e., NaCl) between 3.5 and 30% (m·v^−1) were tested in a glass reactor, and neutralization titration was performed (in triplicate analysis), as previously described. Furthermore, the experimental results were generated in triplicate, using 99% NaCl (Sigma-Aldrich) with five acidic species.

[6] = Partition equilibrium with addition of calcium and strontium salts to the aqueous phase; type: physicochemical; conditions: for Effect of strontium ions on migration to the aqueous phase: strontium 400-2600 mg·L^−1
Method: The addition of salts to the reaction system is of fundamental importance when one intends to mimic field conditions. In this sense, in addition to continuing the study of the salinity effect (Example 4), the insertion of salts containing Ca^2+ and Sr^2+ ions, known to be present in seawater, was tested. To this end, the projects were based on the literature (Zheng, J. et al. Offshore produced water management: A review of current practice and challenges in harsh/Arctic environments. Mar. Pol. Bul. 2016, 104, 7-19) and four concentrations of each of the two ions were evaluated (400.0, 1200.0, 2600.0 and 9000.0 mg·L^−1), maintaining salinity at 3.5% (m·v^−1).
In short, the experimental results were generated in triplicate, using 99% NaCl to add salinity to the aqueous fraction and PA calcium chloride and PA strontium chloride to add calcium and strontium, respectively.
The addition of calcium and strontium to the reaction system, in the form of salts, aims at mimicking the real scenario in which both species are present (regardless of the salinity of the medium), especially in the well condition. This study aimed at understanding the effect (on the migration of acids to the organic phase) of this ion in the system also at concentrations higher than 10 mM. Finally, the experiments (in triplicate) with divalent strontium ions followed the same rationale.

[7] = Partition equilibrium in reactor pressurized with CO2, in presence and absence of alkalinity (NaHCO3, Na2CO3), back titration
Method: In the initial tests, 100 mL of heptol and 300 mL of water (with or without salinity) were used, with the addition of acidic species in the organic phase, in order to verify migration to the aqueous phase. As a rule, the system was kept under agitation at 500 rpm for 8 min, followed by rest for 10 min and, finally, collection of 50.0 mL aliquots of the aqueous phase for titrimetric analysis.
A 316 stainless steel alloy reactor (Parr®) (capacity for 600 mL and operational up to 20 MPa pressure) was used. For this purpose, a temperature range between 25° C. and 80° C. and pressure between 0.1 MPa and 1.0 MPa were used, and the reactor was pressurized with CO2. Thus, the results were compared (in terms of migration of the acidic species (%, mol) by means of back titrations) and the influence of pressure and temperature on the partition was estimated, as well as possible synergistic effects with the sources of alkalinity added to the aqueous phase.

[8] = Salinity 3.5 (%, m · m^−1) NaCl
[9] = Salinity 18.0 (%, m · m^−1) NaCl
[10] = Salinity 30.0 (%, m · m^−1) NaCl
[11] = Calcium 400 mg · L^−1, salinity 3.5%
[12] = Calcium 1200 mg · L^−1, salinity 3.5%
[13] = Calcium 2600 mg · L^−1, salinity 3.5%
[14] = Strontium 400 mg · L^−1, salinity 3.5%
[15] = Strontium 1200 mg · L^−1, salinity 3.5%
[16] = Strontium 2600 mg · L^−1, salinity 3.5%

Availability (reference value) ([1]; Na2CO3 + NaHCO3 (3.48×10^−5 mol)): 100.0 % mol
Availability (reference value) ([1]; NaHCO3 (3.45×10^−5 mol)): 100.0 % mol
Increase in migration to the aqueous phase with demulsifier ([2]; 50 mg·L^−1 of D961): approximately 100%
Migration ([2]; Absence of ions (no demulsifier), salinity 3.5%): 10.4 %, mol
Migration ([2]; D961 50 mg · L^−1): 21.0 %, mol
Migration ([2]; D961 100 mg · L^−1): 21.0 %, mol
Migration ([2]; D961 1000 mg · L^−1): 23.0 %, mol
Migration ([2]; D974 50 mg · L^−1): 18.0 %, mol
Migration ([2]; D974 100 mg · L^−1): 16.0 %, mol
Migration ([2]; D974 1000 mg · L^−1): 14.6 %, mol
Migration [3]: 24.4 %, mol
Migration ([4]; Absence of surfactant, salinity 3.5%): 10.4 %, mol
Migration ([4]; CTA100 (cetyltrimethylammonium chloride 100 mg · L^−1)): 11.5 %, mol
Migration ([4]; CTA1000 (1000 mg · L^−1)): 52.6 %, mol
Migration ([4]; TBA100 (tetrabutylammonium chloride 100 mg · L^−1)): 22.0 %, mol
Migration ([4]; TBA1000 (1000 mg · L^−1)): 21.6 %, mol
Migration ([4]; TMA100 (trimethylammonium chloride 100 mg · L^−1)): 9.4 %, mol
Migration ([4]; TMA1000 (1000 mg · L^−1)): 9.1 %, mol
Increase in migration to the aqueous phase with CTA ([4]; surfactant CTA, 1000 mg·L^−1): ~500%
Increase in the tendency to migrate to the aqueous phase with TBA ([4]; surfactant TBA, noticeable from 100 mg·L^−1): 100%
Effect of TMA on partition equilibrium ([4]; surfactant TMA): no observable effect
Salting out effect (reduction in the number of moles contained in the aqueous phase) ([5]; 30% (m·v^−1) NaCl versus tests without salinity): ~38%
Migration [5, 8]: 13.2 %, mol
Migration [5, 9]: 15.4 %, mol
Migration [5, 10]: 15.4 %, mol
Migration ([6]; Absence of ions, salinity 3.5%): 10.4 %, mol
Migration [6, 11]: 5.5 %, mol
Migration [6, 12]: 4.7 %, mol
Migration [6, 13]: 3.4 %, mol
Migration [6, 14]: 4.4 %, mol
Migration [6, 15]: 5.3 %, mol
Migration [6, 16]: 4.8 %, mol
Effect of calcium ion on migration to the aqueous phase ([6]; calcium up to the maximum study concentrations): no variation in migration
Effect of strontium ions on migration to the aqueous phase [6]: decreased migration
Migration ([7]; 25° C. and 1.0 MPa CO2, no alkalinity): did not generate quantifiable results
Migration ([7]; Na2CO3 + NaHCO3, 25° C. and 0.1 MPa): 100.0 % mol
Migration ([7]; Na2CO3 + NaHCO3, 25° C. and 1.0 MPa CO2): 100.0 % mol
Migration ([7]; Na2CO3 + NaHCO3, 80° C. and 1.0 MPa CO2): 100.0 % mol
Migration ([7]; NaHCO3, 25° C. and 0.1 MPa): 100.0 % mol
Migration ([7]; NaHCO3, 25° C. and 1.0 MPa CO2): 100.0 % mol
Migration ([7]; NaHCO3, 80° C. and 1.0 MPa CO2): 100.0 % mol
Migration trend in the presence of alkalinity individually and together with pressure/temperature ([7]; NaHCO3 or Na2CO3 + NaHCO3, 0.1 or 1.0 MPa, 25 or 80 °C): 100%
Migration ([7]; Reference (heptol + 3.5% NaCl), no alkalinity): 10.3 % mol
Structure (SMILES): O=C(O)CCCCc1ccccc1 [5-Phenylpentanoic Acid, 5-phenylpentanoic acid]

Migration [3]: 22.0 %, mol
Migration to aqueous medium, approximate level over the salinity study ([5]; 0-30% NaCl): around 20%
Effect of the addition of salinity on migration ([5]; 3.5-30% NaCl, 95% reliability): no significant effect
Migration [5, 8]: 18.1 %, mol
Migration [5, 9]: 19.9 %, mol
Migration [5, 10]: 21.5 %, mol
Migration ([6]; Absence of ions, salinity 3.5%): 22.1 %, mol
Migration [6, 11]: 20.7 %, mol
Migration [6, 12]: 19.6 %, mol
Migration [6, 13]: 31.8 %, mol
Migration [6, 14]: 15.8 %, mol
Migration [6, 15]: 20.0 %, mol
Migration [6, 16]: 21.5 %, mol
Migration ([6]; before addition of calcium): 22 % (m·v^−1)
Effect of strontium ions on migration to the aqueous phase [6]: no effect
Structure (SMILES): O=C(O)C(C1CCCCC1)C1CCCCC1 [Dicyclohexylacetic Acid, dicyclohexylacetic acid]
